ChEMBL document CHEMBL4011606, “Synthesis and antiplasmodial activity of novel indoleamide derivatives bearing sulfonamide and triazole pharmacophores” (Eur J Med Chem, 2017)

Tests used:
Plasmodium falciparum [1] = assay: Antiplasmodial activity against chloroquine-sensitive Plasmodium falciparum 3D7 infected in human erythrocytes measured after 72 hrs by SYBR green 1 dye based fluorescence assay; type: functional, cell-based; conditions: 3D7, 72 h
[2] = Resistance index, ratio of IC50 for chloroquine-resistant Plasmodium falciparum K1 to IC50 for chloroquine-sensitive Plasmodium falciparum 3D7; type: functional
[3] = Cytotoxicity against African green monkey Vero cells measured after 3 days by resazurin dye based fluorescence assay; type: cell-based; conditions: chlorocebus sabaeus
[4] = Selectivity index, ratio of CC50 for African green monkey Vero cells to IC50 for chloroquine-sensitive Plasmodium falciparum 3D7; type: toxicity; conditions: read-out: Ratio CC50/IC50
[5] = Selectivity index, ratio of CC50 for African green monkey Vero cells to IC50 for chloroquine-resistant Plasmodium falciparum K1; type: toxicity; conditions: read-out: Ratio CC50/IC50
Plasmodium falciparum [6] = assay: Antiplasmodial activity against chloroquine-resistant Plasmodium falciparum K1 infected in human erythrocytes measured after 72 hrs by SYBR green 1 dye based fluorescence assay; type: functional, cell-based; conditions: K1, 72 h

Compound | IC50 (Plasmodium falciparum [1]) | Ratio IC50 [2] | CC50 at 72 h [3] | selectivity ratio [4] | selectivity ratio [5] | IC50 (Plasmodium falciparum [6])
CC(C)(C)c1ccc(S(=O)(=O)n2cc(CCCC(=O)NC3CCCCCC3)c3ccccc32)cc1 | 2 µM | 0.8 | > 250 µM | > 125 | > 156 | 1.6 µM
O=C(CCCc1cn(CCN2CCOCC2)c2ccccc12)NC1CCCCCC1 | 4.15 µM | 1.77 | > 250 µM | > 60 | > 35 | 7.04 µM
